Where a name gives a salt, the structure may show the parent alone.
How the values were obtained:
[1] = in comparison to a 15 mg dose of hydrocodone
opioid receptors = conditions: after oral administration; cited from earlier work
[2] = hydrochloride salt; cited from earlier work
mu over delta sites = conditions: cited from earlier work

| Molecule | Calculated Dose (equianalgesic dose) [1] | other results |
| --- | --- | --- |
| COc1ccc2c3c1O[C@H]1[C@@H](O)C=C[C@H]4[C@@H](C2)N(C)CC[C@@]341 [Codeine] | 90.0 mg | – |
| COc1ccc2c3c1OC1C(=O)CC[C@H]4[C@@H](C2)N(C)CC[C@]314 (stereo partly drawn) [Hydrocodone, 4,5-epoxy-3-methoxy-17-methylmorphinan-6-one] | 15.0 mg | – |
| CN1CC[C@]23CCCC[C@H]2[C@H]1Cc1ccc(O)cc13 [Levorphanol] | 1.8 mg | – |
| CCC(=O)C(CC(C)N(C)C)(c1ccccc1)c1ccccc1 (stereo not drawn) [Methadone] | 9.0 mg | – |
| COc1ccc2c3c1OC1C(=O)CC[C@@]4(O)[C@@H](C2)N(C)CC[C@]314 (stereo partly drawn) [Oxycodone, 4,5-epoxy-14-hydroxy-3-methoxy-17-methylmorphinan-6-one] | 13.5 mg | – |
| C[C@H]1[C@H]2Cc3ccc(O)cc3[C@]1(C)CCN2CC1CC1 [cyclazocine] | – | duration of effect (opioid receptors): ~24 h |
| O=C1CC[C@@]2(O)[C@H]3Cc4ccc(O)c5c4[C@@]2(CCN3CC2CC2)[C@H]1O5 [hydrochloride salt of naltrexone, naltrexone] | – | solubility in water [2]: about 100 mg/cc |
| O=C1CC[C@@]2(O)[C@H]3Cc4ccc(O)c5c4[C@@]2(CCN3CC2CC2)[C@H]1O5 [naltrexone] | – | blocking action, mu over delta sites (mu over delta sites): strong preferential blocking action against mu over delta sites |
| Meperidine | 135.0 mg | – |

Source: US8685443B2, “Sequestering subunit and related compositions and methods” (Alpharma Pharmaceuticals LLC, priority 2002, dated 2014)
